Reference: patent publication US20210345614A1, “APPLICATION OF 7-CARBOXYBENZO[1,2,3]THIADIAZOLE AMIDES AS PLANT STIMULANTS” (ADAM MICKIEWICZ UNIVERSITY FOUNDATION, priority 2015, published 2021)

Test system: Pyrenophora teres
Experiment: Field test on barley, fungal infection by Pyrenophora teres
Assay type: in vivo, Hordeum vulgare (spring)
Description: The test was conducted on a variety of barley Hordeum vulgare (spring). As such, six applications of the active substance solution was made. The study was conducted on fields of about 25 m^2 in quadruplicate for each combination tested. […] (with the addition of commercial adjuvant) followed by treatment with common fungicide (tebukonazole in formulation containing 250 g of active substance to be applied per 1 ha) in reducing infection of fungi Pyrenophora teres in barley (Hordeum vulgare (spring)) was performed. […] Six applications of the active substance BTHWA solution were made. As a control, one application of fungicide was performed at the time as indicated on the product label. The study was conducted on fields of about 25 m^2 in quadruplicate for each combination tested. […] The fungicide was applied in an amount of 33% its recommended dose (83 g/ha). Six applications of the active substance BTHWA solution were made. As a control, one application of fungicide was performed at the time as indicated on the product label. The study was conducted on fields of about 25 m^2 in quadruplicate for each combination tested.

[1] = Example 29: tebukonazole 1x 250 g/ha alone, or BTHWA 20 mg/L (six applications) + tebukonazole 1x 125 g/ha
[2] = Example 30: tebukonazole 1x 250 g/ha alone, or BTHWA 20 mg/L (six applications) + tebukonazole 1x, table prints 125 g/ha, text 83 g/ha

CC(C)(C)C(O)(CCc1ccc(Cl)cc1)Cn1cncn1 (racemic) [tebukonazole, (RS)-1-(4-chlorophenyl)-4,4-dimethyl-3-(1H, 1,2,4-triazol-1-ylmethyl)pentan-3-ol]
% efficacy [1]: 90.87% | % of infection [1]: 6.00% | % efficacy [2]: 90.87% | % of infection [2]: 6.00%
